Calls of active or inactive are those of the source. No cut-off for these calls is given here.
Legend:
Type in all cases: functional
Aspergillus niger [1] = assay: Antifungal activity against Aspergillus niger at 100 ug/well after 48 hrs by agar well diffusion method; conditions: read-out: DIZ
Pseudomonas aeruginosa [2] = assay: Antibacterial activity against Pseudomonas aeruginosa at 100 ug/well after 24 hrs by agar well diffusion method; conditions: for zone of inhibition at 100 µg/disc: read-out: DIZ
Aspergillus niger [3] = assay: Antifungal activity against Aspergillus niger at 50 ug/well after 48 hrs by agar well diffusion method; conditions: read-out: DIZ
Klebsiella pneumoniae [4] = assay: Antibacterial activity against Klebsiella pneumoniae at 50 ug/well after 24 hrs by agar well diffusion method; conditions: read-out: DIZ
Staphylococcus aureus [5] = assay: Antibacterial activity against Staphylococcus aureus at 50 ug/well after 24 hrs by agar well diffusion method; conditions: read-out: DIZ
Staphylococcus aureus [6] = assay: Antibacterial activity against Staphylococcus aureus at 100 ug/well after 24 hrs by agar well diffusion method; conditions: read-out: DIZ
Penicillium chrysogenum [7] = assay: Antifungal activity against Penicillium chrysogenum at 50 ug/well after 48 hrs by agar well diffusion method; conditions: read-out: DIZ
Penicillium chrysogenum [8] = assay: Antifungal activity against Penicillium chrysogenum at 100 ug/well after 48 hrs by agar well diffusion method; conditions: read-out: DIZ
Bacillus subtilis [9] = assay: Antibacterial activity against Bacillus subtilis at 100 ug/well after 24 hrs by agar well diffusion method; conditions: read-out: DIZ
Bacillus subtilis [10] = assay: Antibacterial activity against Bacillus subtilis at 50 ug/well after 24 hrs by agar well diffusion method; conditions: read-out: DIZ
Pseudomonas aeruginosa [11] = assay: Antibacterial activity against Pseudomonas aeruginosa at 50 ug/well after 24 hrs by agar well diffusion method; conditions: for zone of inhibition at 50 µg/disc: read-out: DIZ
Klebsiella pneumoniae [12] = assay: Antibacterial activity against Klebsiella pneumoniae at 100 ug/well after 24 hrs by agar well diffusion method; conditions: read-out: DIZ

| SMILES | zone of inhibition at 100 µg/disc (Aspergillus niger [1]) | diameter of the inhibition zone (DIZ) (Pseudomonas aeruginosa [2]) | zone of inhibition at 50 µg/disc (Aspergillus niger [3]) | zone of inhibition at 50 µg/disc (Klebsiella pneumoniae [4]) | zone of inhibition at 50 µg/disc (Staphylococcus aureus [5]) | zone of inhibition at 100 µg/disc (Staphylococcus aureus [6]) | zone of inhibition at 50 µg/disc (Penicillium chrysogenum [7]) | zone of inhibition at 100 µg/disc (Penicillium chrysogenum [8]) | zone of inhibition at 100 µg/disc (Bacillus subtilis [9]) | zone of inhibition at 50 µg/disc (Bacillus subtilis [10]) | diameter of the inhibition zone (DIZ) (Pseudomonas aeruginosa [11]) | zone of inhibition at 100 µg/disc (Klebsiella pneumoniae [12]) | zone of inhibition at 100 µg/disc (Pseudomonas aeruginosa [2]) | zone of inhibition at 50 µg/disc (Pseudomonas aeruginosa [11]) |
| --- | --- | --- | --- | --- | --- | --- | --- | --- | --- | --- | --- | --- | --- | --- |
| Cc1ccc(S(=O)(=O)C2C(c3ccc(Cl)cc3)=NOC2c2ccc(C3ON=C(c4ccc(Cl)cc4)C3S(=O)(=O)c3ccc(C)cc3)cc2)cc1 (stereo unspecified) | 17 mm | inactive | 15 mm | 10 mm | 12 mm | 15 mm | 17 mm | 21 mm | 18 mm | 16 mm | inactive | 12 mm | – | – |
| Cc1ccc(S(=O)(=O)c2c(-c3ccc(Cl)cc3)nn(-c3ccccc3)c2-c2ccc(-c3c(S(=O)(=O)c4ccc(C)cc4)c(-c4ccc(Cl)cc4)nn3-c3ccccc3)cc2)cc1 | 26 mm | – | 22 mm | 21 mm | 24 mm | 26 mm | 26 mm | 29 mm | 30 mm | 28 mm | – | 23 mm | 18 mm | 15 mm |
| O=S(=O)(c1ccccc1)c1c(-c2ccc(Cl)cc2)nn(-c2ccccc2)c1-c1ccc(-c2c(S(=O)(=O)c3ccccc3)c(-c3ccc(Cl)cc3)nn2-c2ccccc2)cc1 | 27 mm | – | 24 mm | 21 mm | 23 mm | 25 mm | 27 mm | 30 mm | 31 mm | 28 mm | – | 23 mm | 19 mm | 17 mm |
| COc1ccc(C2=NOC(c3ccc(C4ON=C(c5ccc(OC)cc5)C4S(=O)(=O)c4ccc(Cl)cc4)cc3)C2S(=O)(=O)c2ccc(Cl)cc2)cc1 (stereo unspecified) | 16 mm | inactive | 14 mm | 9 mm | 9 mm | 12 mm | 16 mm | 19 mm | 15 mm | 13 mm | inactive | 11 mm | – | – |
| COc1ccc(-c2noc(-c3ccc(-c4onc(-c5ccc(OC)cc5)c4S(=O)(=O)c4ccccc4)cc3)c2S(=O)(=O)c2ccccc2)cc1 | 30 mm | – | 27 mm | 18 mm | 20 mm | 23 mm | 26 mm | 29 mm | 28 mm | 26 mm | – | 21 mm | 18 mm | 16 mm |
| O=S(=O)(c1ccc(Cl)cc1)C1C(c2ccc(Cl)cc2)=NN(c2ccccc2)C1c1ccc(C2C(S(=O)(=O)c3ccc(Cl)cc3)C(c3ccc(Cl)cc3)=NN2c2ccccc2)cc1 (stereo unspecified) | 15 mm | inactive | 13 mm | 10 mm | 11 mm | 14 mm | 18 mm | 20 mm | 16 mm | 13 mm | inactive | 13 mm | – | – |
| O=S(=O)(c1ccc(Cl)cc1)C1C(c2ccc(Cl)cc2)=NOC1c1ccc(C2ON=C(c3ccc(Cl)cc3)C2S(=O)(=O)c2ccc(Cl)cc2)cc1 (stereo unspecified) | 20 mm | – | 18 mm | 12 mm | 14 mm | 16 mm | 21 mm | 23 mm | 21 mm | 19 mm | – | 14 mm | 13 mm | 11 mm |
| COc1ccc(-c2noc(-c3ccc(-c4onc(-c5ccc(OC)cc5)c4S(=O)(=O)c4ccc(Cl)cc4)cc3)c2S(=O)(=O)c2ccc(Cl)cc2)cc1 | 26 mm | – | 23 mm | 22 mm | 23 mm | 26 mm | 27 mm | 30 mm | 32 mm | 30 mm | – | 24 mm | 20 mm | 17 mm |
